Data as given in the NIST ThermoML archive (doi:10.1016/j.tca.2008.05.002).

Key:
[1] = for molar entropy: 101.33 kPa, Small (less than 1 g) adiabatic calorimetry; for Triple point temperature: Adiabatic calorimetry
[2] = molar heat capacity at constant pressure; conditions: 101.33 kPa, Small (less than 1 g) adiabatic calorimetry

CCCCn1cc[n+](C)c1.O=[N+]([O-])[O-] [1-butyl-3-methylimidazolium nitrate]
Conditions | molar entropy, [1] [J/K/mol] | molar heat capacity at constant pressure, [2] [J/K/mol]
5 K, Crystal 4 | 0.18 | 0.536
10 K, Crystal 4 | 1.52 | 4.46
15 K, Crystal 4 | 4.64 | 11.93
20 K, Crystal 4 | 9.379 | 21.74
25 K, Crystal 4 | 15.39 | 32.7
30 K, Crystal 4 | 22.34 | 43.8
35 K, Crystal 4 | 29.9 | 54.44
40 K, Crystal 4 | 37.83 | 64.5
45 K, Crystal 4 | 45.98 | 73.88
50 K, Crystal 4 | 54.22 | 82.59
55 K, Crystal 4 | 62.47 | 90.63
60 K, Crystal 4 | 70.67 | 97.94
70 K, Crystal 4 | 86.8 | 111.1
80 K, Crystal 4 | 102.4 | 122.4
90 K, Crystal 4 | 117.4 | 132.2
100 K, Crystal 4 | 131.8 | 141
110 K, Crystal 4 | 145.6 | 149.2
120 K, Crystal 4 | 158.9 | 156.9
130 K, Crystal 4 | 171.8 | 164.4
140 K, Crystal 4 | 184.2 | 171.8
150 K, Crystal 4 | 196.3 | 179.1
160 K, Crystal 4 | 208.1 | 186.5
170 K, Crystal 4 | 219.7 | 194.1
180 K, Crystal 4 | 231 | 202
190 K, Crystal 4 | 242.1 | 210.1
200 K, Crystal 4 | 253.1 | 218.6
210 K, Crystal 4 | 264 | 227.3
220 K, Crystal 4 | 274.7 | 236.2
230 K, Crystal 4 | 285.4 | 245.1
240 K, Crystal 4 | 296.1 | 254
250 K, Crystal 4 | 306.6 | 262.9
260 K, Crystal 4 | 317.1 | 271.8
270 K, Crystal 4 | 327.5 | 280.7
278.2 K, Crystal 3 | 343.5 | 288
278.2 K, Crystal 4 | 336 | 288
280 K, Crystal 3 | 345.3 | 289.6
285 K, Crystal 3 | 350.5 | 294.1
288.1 K, Crystal 2 | 354.9 | 296.8
288.1 K, Crystal 3 | 353.7 | 296.8
290 K, Crystal 2 | 356.9 | 298.6
292.2 K, Crystal 1 | 359.7 | 300.5
292.2 K, Crystal 2 | 359.2 | 300.5
295 K, Crystal 1 | 362.6 | 303
298.15 K, Crystal 1 | 365.8 | 305.8
300 K, Crystal 1 | 367.7 | 307.5
309.16 K, Crystal 1 | 377.1 | 315.6
309.16 K, Liquid | 435.3 | 357.7
310 K, Liquid | 436.3 | 358
320 K, Liquid | 447.7 | 361.8
330 K, Liquid | 458.9 | 365.8
340 K, Liquid | 469.9 | 369.8
350 K, Liquid | 480.7 | 374.1
360 K, Liquid | 491.2 | 378.5
370 K, Liquid | 501.6 | 383

[1]
Conditions | Triple point temperature [K]
Crystal 1 | 309.16
Crystal 2 | 292.2
Crystal 3 | 288.1
Crystal 4 | 278.8
